The source of these data is patent US20160024057A1, “INDAZOLE RETINOIC ACID RECEPTOR-RELATED ORPHAN RECEPTOR MODULATORS AND USES THEREOF” (INNOV17 LLC, priority 2014, published 2016).

In general, IC50 refers to the concentration that inhibits the measured activity by half.

What all share (assay type): cell-based
The test system of one experiment is IL-17F. As to the kind of experiment: Human TH17 cytokine inhibition measured by ELISA: IL-17F. To be noted: 72 h; human CD4+ T cells under TH17-polarizing conditions, 3 days, supernatant ELISA. How it is done:
(§1) Human TH17 Cytokine Inhibition as Measured by ELISA
(§2) Peripheral blood mononuclear cells (PBMCs) were sourced from freshly prepared leukocyte enriched plasma (buffy coat) from healthy donors (New York Blood Center). PBMCs were isolated by density gradient centrifugation using Ficoll-Paque™ PLUS (GE Healthcare). Human CD4+ T cells were seeded into 96-well plates (5×10^4 cells/well) and activated with plate-bound anti-human (h)-CD3 antibody and soluble h-aCD28 (both at 1 ug/ml; eBioscience) and differentiated into TH17 cells with 20 ng/mL h-IL-6, 5 ng/mL h-TGF-β1, 10 ng/mL h-IL-23 (eBioscience) and 10 ng/mL IL-1β (Miltenyi Biotec) in serum-free TexMACS Medium (Miltenyi Biotec) supplemented with 1% Penicillin/Streptomycin (Lonza) for 3 days. CD4+ T cells propagated under TH17-polarizing conditions were cultured in the presence or absence of various concentrations of compounds with a final concentration of 0.1% DMSO. Supernatants were collected and stored at −20° C. until assayed for IL-17A, IL-17F and IL-21 levels by “Ready-Set-Go” ELISA kits (eBioscience) as per manufacturer's instructions. Endpoint absorbance was read at 450 nm using a microplate reader (Perkin Elmer).
On the technique in general: An ELISA detects its analyte on a solid surface through an enzyme-linked reagent.

The subject of the next experiment is IL-17A. The experiment is described as follows: Human TH17 cytokine inhibition measured by ELISA: IL-17A. To be noted: human CD4+ T cells under TH17-polarizing conditions, 3 days, supernatant ELISA. How it is done: as §1, §2
For the next experiment, the system named is IL-21. The experiment is described as follows: Human TH17 cytokine inhibition measured by ELISA: IL-21. To be noted: 72 h; human CD4+ T cells under TH17-polarizing conditions, 3 days, supernatant ELISA. How it is done: as §1, §2
The subject of the next experiment is IL-22. The experiment is described as follows: Human TH17 cytokine inhibition measured by ELISA: IL-22. Particulars: 72 h; human CD4+ T cells under TH17-polarizing conditions, 3 days, supernatant ELISA.

With `C[C@@H]1C[C@H](Cn2ncc3cc(-c4cn[nH]c4)ccc32)CN1S(=O)(=O)c1ccccc1` (racemic) [Example 33, rac.-cis-1-((-5-methyl-1-(phenylsulfonyl)pyrrolidin-3-yl)methyl)-5-(1H-pyrazol-4-yl)-1H-indazole], the IC50 in the experiment on IL-17F, in the experiment on IL-17A (72 h) and in the experiment on IL-21 was below 10 µM in each case.
`C[C@@H]1C[C@@H](Cn2ncc3cc(-c4cn[nH]c4)ccc32)CN1S(=O)(=O)c1ccccc1` (racemic) [Example 34, rac.-trans-1-((-5-methyl-1-(phenylsulfonyl)pyrrolidin-3-yl)methyl)-5-(1H-pyrazol-4-yl)-1H-indazole]: the IC50 in the experiment on IL-17A is below 10 µM.
As for `C[C@H]1C[C@@H](Cn2ncc3cc(-c4cn[nH]c4)ccc32)CN1C(=O)CCc1ccccc1` (racemic) [Example 46, rac.-cis-1-(4-((5-(1H-pyrazol-4-yl)-1H-indazol-1-yl)methyl)-2-methylpyrrolidin-1-yl)-3-phenylpropan-1-one], the IC50 in the experiment with IL-17F, in the experiment with IL-17A (72 h) and with IL-21 was below 10 µM throughout.
Take `C[C@@H]1C[C@@H](Cn2ncc3cc(-c4cn[nH]c4)ccc32)CN1C(=O)CCc1ccccc1` (racemic) [Example 47, rac.-trans-1-(4-((5-(1H-pyrazol-4-yl)-1H-indazol-1-yl)methyl)-2-methylpyrrolidin-1-yl)-3-phenylpropan-1-one]: the IC50 in the experiment on IL-17F, in the experiment on IL-17A (72 h) and with IL-21 was below 10 µM in each case.
On to `O=C(CCc1ccccc1)N1CCC(Cn2ncc3cc(-c4cn[nH]c4)ccc32)CC1` [Example 3, 1-(4-((5-(1H-pyrazol-4-yl)-1H-indazol-1-yl)methyl)piperidin-1-yl)-3-phenylpropan-1-one], for which the IC50 in the experiment on IL-17F, in the experiment on IL-17A (72 h) and in the experiment with IL-21 was below 10 µM each time.
`O=C(CC1CCCCC1)N1CCC(Cn2ncc3cc(-c4cn[nH]c4)ccc32)CC1` [Example 4, 1-(4-((5-(1H-pyrazol-4-yl)-1H-indazol-1-yl)methyl)piperidin-1-yl)-2-cyclohexylethanone]: the IC50 in the experiment on IL-17F, in the experiment on IL-17A (72 h) and in the experiment with IL-21 was below 10 µM throughout.
With `O=C(Cc1ccccc1)N1CCC(Cn2ncc3cc(-c4cn[nH]c4)ccc32)CC1` [Example 7, 1-(4-((5-(1H-pyrazol-4-yl)-1H-indazol-1-yl)methyl)piperidin-1-yl)-2-phenylethanone], the IC50 in the experiment on IL-17F, in the experiment with IL-17A (72 h) and in the experiment on IL-21 was below 10 µM in each case.
With `O=C(CCCc1ccccc1)N1CCC(Cn2ncc3cc(-c4cn[nH]c4)ccc32)CC1` [Example 8, 1-(4-((5-(1H-pyrazol-4-yl)-1H-indazol-1-yl)methyl)piperidin-1-yl)-4-phenylbutan-1-one], the IC50 with IL-17F, in the experiment on IL-17A (72 h) and in the experiment on IL-21 was below 10 µM in each case.
Take `CC1(C)CC(Cn2ncc3cc(-c4cn[nH]c4)ccc32)CN1C(=O)Cc1ccccc1` (centres unmarked) [Example 19, 1-(4-((5-(1H-pyrazol-4-yl)-1H-indazol-1-yl)methyl)-2,2-dimethylpyrrolidin-1-yl)-2-phenylethanone]: the IC50 in the experiment on IL-17F and in the experiment on IL-17A (72 h) was below 10 µM throughout.
Turning to `O=S(=O)(c1ccccc1)N1CCC(Cn2ncc3cc(-c4cn[nH]c4)ccc32)CC1` [Example 30, 1-((1-(phenylsulfonyl)piperidin-4-yl)methyl)-5-(1H-pyrazol-4-yl)-1H-indazole], the IC50 in the experiment on IL-17F, in the experiment with IL-17A (72 h), in the experiment on IL-22 and in the experiment on IL-21 was below 10 µM in each case.
In the case of `O=S(=O)(Cc1ccccc1)N1CCC(Cn2ncc3cc(-c4cn[nH]c4)ccc32)CC1` [Example 32, 1-((1-(benzylsulfonyl)piperidin-4-yl)methyl)-5-(1H-pyrazol-4-yl)-1H-indazole], the concentration for half-maximal inhibition (IC50) with IL-17F, in the experiment with IL-17A (72 h), in the experiment with IL-22 and in the experiment on IL-21 was below 10 µM each time.
Consider `CC1(C)CC(Cn2ncc3cc(-c4cn[nH]c4)ccc32)CN1S(=O)(=O)c1ccccc1` (centres unmarked) [Example 35, 1-((5,5-dimethyl-1-(phenylsulfonyl)pyrrolidin-3-yl)methyl)-5-(1H-pyrazol-4-yl)-1H-indazole], for which the IC50 with IL-17F, with IL-17A (72 h) and in the experiment on IL-21 was below 10 µM in each case.
In the case of `O=S(=O)(c1ccc(F)cc1)N1CCC(Cn2ncc3cc(-c4cn[nH]c4)ccc32)CC1` [Example 37, 1-((1-((4-fluorophenyl)sulfonyl)piperidin-4-yl)methyl)-5-(1H-pyrazol-4-yl)-1H-indazole], the IC50 in the experiment on IL-17F and in the experiment on IL-17A (72 h) was below 10 µM in each case.
`N#Cc1ccc(S(=O)(=O)N2CCC(Cn3ncc4cc(-c5cn[nH]c5)ccc43)CC2)cc1` [Example 38, 4-(4-((5-(1H-pyrazol-4-yl)-1H-indazol-1-yl)methyl)piperidin-1-ylsulfonyl)benzonitrile]: the IC50 in the experiment on IL-17F and in the experiment on IL-17A (72 h) was below 10 µM throughout.
For the molecule `O=S(=O)(c1cccnc1)N1CCC(Cn2ncc3cc(-c4cn[nH]c4)ccc32)CC1` [Example 39, 5-(1H-pyrazol-4-yl)-1-((1-(pyridin-3-ylsulfonyl)piperidin-4-yl)methyl)-1H-indazole], the IC50 in the experiment on IL-17F and in the experiment with IL-17A (72 h) was below 10 µM in each case.
As for `Cc1ccc(S(=O)(=O)N2CCC(Cn3ncc4cc(-c5cn[nH]c5)ccc43)CC2)cc1` [Example 42, 5-(1H-pyrazol-4-yl)-1-((1-tosylpiperidin-4-yl)methyl)-1H-indazole], the IC50 in the experiment with IL-17F and in the experiment with IL-17A (72 h) was below 10 µM throughout.
On to `N#Cc1cccc(S(=O)(=O)N2CCC(Cn3ncc4cc(-c5cn[nH]c5)ccc43)CC2)c1` [Example 43, 3-((4-((5-(1H-pyrazol-4-yl)-1H-indazol-1-yl)methyl)piperidin-1-yl)sulfonyl)benzonitrile], for which the IC50 in the experiment on IL-17F and in the experiment on IL-17A (72 h) was below 10 µM in each case.
For the molecule `O=S(=O)(c1ccc(C(F)F)cc1)N1CCC(Cn2ncc3cc(-c4cn[nH]c4)ccc32)CC1` [Example 44, 1-((1-((4-(difluoromethyl)phenyl)sulfonyl)piperidin-4-yl)methyl)-5-(1H-pyrazol-4-yl)-1H-indazole], the IC50 in the experiment on IL-17F and in the experiment on IL-17A (72 h) was below 10 µM throughout.
